Like-named read-outs stand apart in the source and are kept apart here.
Tests used:
[1] = target: porcine pancreatic secreted PLA2 (pps PLA2) (Sus scrofa, UniProt P00592); conditions: reported literature data; cited from earlier work
[2] = target: human pancreatic secreted PLA2 (hps PLA2) (Homo sapiens, UniProt P04054); conditions: reported literature data; cited from earlier work
[3] = format: in vivo, mice; conditions: for body weight gain compared to wild-type control group: week 4 and week 10
human PLA2 IB enzyme = human PLA2 IB enzyme (Homo sapiens, UniProt P04054); conditions: pyrene substrate release from vesicles (Singer, Ghomashchi et al. 2002); read-out: IC50 versus the human PLA2 IB enzyme; cited from earlier work
human PLA2 IB enzyme, sequence (P04054 23-148): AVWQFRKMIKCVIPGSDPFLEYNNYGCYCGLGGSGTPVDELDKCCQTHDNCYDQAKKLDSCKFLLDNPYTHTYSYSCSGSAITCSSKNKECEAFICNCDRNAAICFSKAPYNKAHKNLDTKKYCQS

[4] = format: in vivo, mice; conditions: low dose 25 mg/kg/day in diet
Stability at low pH = format: physicochemical
Caco-2 cells [5] = assay: Caco-2 permeability study (Example 6B)
[6] = format: in vivo, mice; conditions: 10 weeks
mouse PLA2 IB enzyme = mouse PLA2 IB enzyme (Mus musculus, UniProt Q9Z0Y2); conditions: pyrene substrate release from vesicles (Singer, Ghomashchi et al. 2002); read-out: IC50 versus the mouse PLA2 IB enzyme; cited from earlier work
mouse PLA2 IB enzyme, sequence (Q9Z0Y2 23-146): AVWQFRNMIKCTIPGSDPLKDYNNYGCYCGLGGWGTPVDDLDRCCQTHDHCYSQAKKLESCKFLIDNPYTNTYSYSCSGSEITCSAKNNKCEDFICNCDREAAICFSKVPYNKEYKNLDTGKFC

[7] = Pharmokinetic study, bioavailability (Example 6C); format: in vivo, mice
Procedure: This example characterized ILY-4001 [2-(3-(2-amino-2-oxoacetyl)-1-(biphenyl-2-ylmethyl)-2-methyl-1H-indol-4-yloxy)acetic acid], alternatively referred to herein as methyl indoxam, with respect to activity, as determined by IC50 assay (Example 6A), with respect to cell absorption, as determined by in-vitro Caco-2 assay (Example 6B) and with respect to bioavailability, as determined using in-vivo mice studies (Example 6C).
Bioavailability was calculated as a ratio of AUC-oral/AUC-intravenous (IV). To determine this ratio, a first set of subject animals were given a measured intravenous (IV) dose of ILY-4001, followed by a determination of ILY-4001 levels in the blood at various time points after administration (e.g., 5 minutes through 24 hours). Another second set of animals was similarly dosed using oral administration, with blood levels of ILY-4001 determined at various time points after administration (e.g., 30 minutes through 24 hours). The level of ILY-4001 in systemic circulation were determined by generally accepted methods (for example as described in Evans, G., A Handbook of Bioanalysis and Drug Metabolism. Boca Raton, CRC Press (2004)). Specifically, […]/mass spectrometry/mass spectrometry (LC/MS/MS) analytical methods were used to quantitate plasma concentrations of ILY-4001 after oral and intravenous administration. […]

Caco-2 cells [8] = system: Caco-2 cells

porcine pancreatic secreted PLA2 (pps PLA2), sequence (P00592 23-146): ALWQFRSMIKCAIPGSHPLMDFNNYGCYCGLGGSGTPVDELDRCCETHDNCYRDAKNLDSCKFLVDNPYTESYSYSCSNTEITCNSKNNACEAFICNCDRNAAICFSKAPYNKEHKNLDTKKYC
human pancreatic secreted PLA2 (hps PLA2), sequence (P04054 23-148): as the sequence (P04054 23-148) above

Cc1c(CC(N)=O)c2c(OCC(=O)O)cccc2n1Cc1cccc(Cl)c1
IC50 [1]: 0.02 µM | IC50 [2]: 1.2 µM

Cc1c(CC(N)=O)c2c(OCC(=O)O)cccc2n1Cc1ccccc1-c1ccccc1
IC50 [1]: 0.014 µM | IC50 [2]: 4.09 µM

Cc1c(CC(=O)NN)c2cc(OCCCC(=O)O)ccc2n1Cc1ccccc1
IC50 (μM) pps PLA2 [1]: no activity | IC50 (μM) hps PLA2 [2]: no activity

Cc1c(C(=O)C(N)=O)c2c(/C=C/C(=O)O)cccc2n1Cc1ccccc1
IC50 [2]: > 100 µM

Cc1c(C(=O)C(N)=O)c2c(CCC(=O)O)cccc2n1Cc1ccccc1
IC50 [2]: > 100 µM

Cc1c(C(=O)C(N)=O)c2c(OCC(=O)O)cccc2n1Cc1ccccc1-c1ccccc1 [ILY-4001, 2-(3-(2-amino-2-oxoacetyl)-1-(biphenyl-2-ylmethyl)-2-methyl-1H-indol-4-yloxy)acetic acid]
body weight gain modulation relative to PLA2 (−/−) mice ([3]; 25 mg/kg/d (low dose) in diet, ten weeks): comparable to that achieved in the PLA2 (−/−) mice | body weight gain modulation relative to PLA2 (−/−) mice ([3]; 25 mg/kg/d in diet, four weeks): approaching that achieved in the PLA2 (−/−) mice | body weight gain compared to wild-type control group ([3]; 25 mg/kg/d in diet): significantly reduced body weight gains | body weight gain modulation relative to PLA2 (−/−) mice ([3]; 90 mg/kg/d in diet, four weeks): approaching that achieved in the PLA2 (−/−) mice | body weight gain compared to wild-type control group ([3]; 90 mg/kg/d in diet): significantly reduced body weight gains | IC50 (human PLA2 IB enzyme): ~0.2 µM | fasting glucose levels ([4]; week four): moderately beneficial effect | fasting glucose levels ([4]; week ten): a beneficial effect was not observed | stability at low pH (Stability at low pH): stable at low pH | apparent permeability (Papp) (Caco-2 cells [5]; 50 ug/ml in apical well, sampled basolateral, Caco-2 monolayer): around 1.66×10^−7 cm/s | absorption from the GI lumen (Caco-2 cells [5]; based on Caco-2 assays and pharmokinetic studies): relatively low absorption | plasma level of cholesterol ([6]; high dose 90 mg/kg/day in diet): substantially reduced | plasma level of triglycerides ([6]; high dose 90 mg/kg/day in diet): substantially reduced | plasma level of cholesterol ([6]; low dose 25 mg/kg/day in diet): substantially reduced | plasma level of triglycerides ([6]; low dose 25 mg/kg/day in diet): substantially reduced | IC50 (mouse PLA2 IB enzyme): ~0.15 µM | bioavailability ([7]; mouse, plasma, oral, 30 mg/kg, read-out: % F (bioavailability)): 28% | level of non-absorption from the GI tract into systemic circulation ([7]; oral 30 mg/kg): ~72%

Lucifer Yellow
apparent permeability (Papp) (Caco-2 cells [8]): around 2.82×10^−7+/−0.37×10^−7 cm/s

Source: patent US20080021049A1, “Treatment Of Diet-Related Conditions Using Phospholipase-A2 Inhibitors Comprising Indoles And Related Compounds” (priority 2004, published 2008)
